Starred links: 1 amine or outer side, 2 acyl side, 3 side chain; linkers in the order of their positions; H or OH if unused. Positions of bridges follow the written chain, without caps; N, C: chain ends. Non-standard residues stand in square brackets, D forms with d. Residues, ends and D or L forms follow the SMILES beside them. *: point of attachment. Bip(4'-(3-HOOC-benzamido)) = N[C@@H](Cc1ccc(-c2ccc(NC(=O)c3cccc(C(=O)O)c3)cc2)cc1)C(=O)O; X10 = Cn1cc(C(=O)Nc2ccc(-c3ccc(C[C@H](N[*:1])C(=O)[*:2])cc3)cc2)c2ccccc21; X74 = Cn1nc(C(=O)Nc2ccc(-c3ccc(C[C@H](N[*:1])C(=O)[*:2])cc3)cc2)c2cccnc21; X78 = O=C(Nc1ccc(-c2ccc(C[C@H](N[*:1])C(=O)[*:2])cc2)cc1)c1n[nH]c2ccccc12; X5 = Cn1nc(C(=O)Nc2ccc(-c3ccc(C[C@H](N[*:1])C(=O)[*:2])cc3)cc2)c2ccccc21; X9 = Cn1nc(C(=O)Nc2cccc(-c3ccc(C[C@H](N[*:1])C(=O)[*:2])cc3)c2)c2cccnc21; X17 = O=C(Nc1cccc(-c2ccc(C[C@H](N[*:1])C(=O)[*:2])cc2)c1)c1coc2ccccc12; X47 = O=C(Nc1ccc(-c2ccc(C[C@H](N[*:1])C(=O)[*:2])cc2)cc1)c1coc2ccccc12; Bip(4'-NHBz) = N[C@@H](Cc1ccc(-c2ccc(NC(=O)c3ccccc3)cc2)cc1)C(=O)O; Bip(4'-NH) = O=C([C@H](Cc1ccc(-c2ccc(N[*:3])cc2)cc1)N[*:1])[*:2]; Bip(4'-CONHMe) = CNC(=O)c1ccc(-c2ccc(C[C@H](N)C(=O)O)cc2)cc1; Bip(4'-COOH) = N[C@@H](Cc1ccc(-c2ccc(C(=O)O)cc2)cc1)C(=O)O; Bip(4'-NHAc) = CC(=O)Nc1ccc(-c2ccc(C[C@H](N)C(=O)O)cc2)cc1; Ala(morpholin-4-yl) = N[C@@H](CN1CCOCC1)C(=O)O; Benzoyl(3-OCH2COOH) = O=C(O)COc1cccc(C(=O)*)c1; Benzoyl(3-Ph) = O=C(c1cccc(-c2ccccc2)c1)*; Bip = N[C@@H](Cc1ccc(-c2ccccc2)cc1)C(=O)O; X3 = O=C(O)c1cccc(Oc2ccccc2C(=O)*)c1; Cha = N[C@@H](CC1CCCCC1)C(=O)O; X20 = O=C(c1csc(-c2ccncc2)n1)*; Tle = CC(C)(C)[C@H](N)C(=O)O; Sar = CNCC(=O)O
What follows are molecules tested against TNFα (Homo sapiens, UniProt P01375) (assay: TNF-Induced HEK-Blue Assay). Settings: not given.
Sequence of TNFα (P01375 77-233 limits assumed): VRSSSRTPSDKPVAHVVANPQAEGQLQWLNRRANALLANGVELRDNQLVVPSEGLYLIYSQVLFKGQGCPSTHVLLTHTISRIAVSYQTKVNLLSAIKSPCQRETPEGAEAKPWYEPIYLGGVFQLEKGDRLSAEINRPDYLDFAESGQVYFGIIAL
Type: cell-based

Row | SMILES | IC50 [nM]
1 | CC[C@H](C)[C@@H]1NC(=O)[C@@H]2CCCN2C(=O)[C@H]([C@@H](C)CC)NC(=O)[C@@H](CCCNC(=N)N)NC(=O)[C@H](CC(=O)O)NC(=O)[C@H](Cc2ccccc2)NC(=O)CN(C)C(=O)[C@H](Cc2ccc(-c3ccc(NC(=O)c4ccccc4)cc3)cc2)NC(=O)[C@H](Cc2ccc(-c3ccc(C(=O)O)cc3)cc2)NC(=O)[C@H](C(C)(C)C)NC(=O)CSC[C@@H](C(=O)NCC(N)=O)NC(=O)[C@H](CC(C)C)NC(=O)[C@H](Cc2cnc[nH]2)NC1=O [Example 350] ({CH2CO}-[Tle][Bip(4'-COOH)][Bip(4'-NHBz)][Sar]FD[dR]IPIHLCG-NH2; thioether N-13) | < 50

Same assay, conditions: HEK-Blue-CD40L cells, NF-kB-driven secreted alkaline phosphatase reporter; TNFα 0.5 ng/ml; 18 h; read-out: TNF induced HEK-Blue assay IC50 value

Row | IC50 [nM] | SMILES
2 | < 50 | CC[C@H](C)[C@@H]1NC(=O)[C@@H](CCCNC(=N)N)NC(=O)[C@H](CC(=O)O)NC(=O)[C@H](Cc2cnc[nH]2)NC(=O)CN(C)C(=O)[C@H](Cc2ccc(-c3ccc(NC(C)=O)cc3)cc2)NC(=O)[C@H](Cc2ccc(-c3ccc(C(=O)NC)cc3)cc2)NC(=O)[C@H](CC2CCCCC2)NC(=O)CSC[C@@H](C(=O)NCC(N)=O)NC(=O)[C@H](CC(C)C)NC(=O)[C@H](Cc2cnc[nH]2)NC(=O)[C@H](C(C)C)NC(=O)[C@@H]2CCCN2C1=O [Example 342] ({CH2CO}-[Cha][Bip(4'-CONHMe)][Bip(4'-NHAc)][Sar]HD[dR]IPVHLCG-NH2; thioether N-13)
3 | < 50 | CC(C)C[C@@H]1NC(=O)[C@H](CCCNC(=N)N)NC(=O)[C@H](C(C)C)NC(=O)[C@@H]2CCCN2C(=O)[C@H](C(C)C)NC(=O)[C@@H](CCCNC(=N)N)NC(=O)[C@H](CC(=O)O)NC(=O)[C@@H]2CCCN2C(=O)CN(C)C(=O)[C@H](Cc2ccc(-c3ccc(NC(=O)c4n[nH]c5ccccc45)cc3)cc2)NC(=O)[C@H](Cc2ccc(-c3ccccc3)cc2)NC(=O)[C@H](CN2CCOCC2)NC(=O)CSC[C@@H](C(=O)NCC(N)=O)NC1=O [Example 343] ({CH2CO}-[Ala(morpholin-4-yl)][Bip][X78][Sar]PD[dR]VPVRLCG-NH2; thioether N-13)
4 | < 50 | CC(C)C[C@@H]1NC(=O)[C@H](CCCNC(=N)N)NC(=O)[C@H](C(C)C)NC(=O)[C@@H]2CCCN2C(=O)[C@H](C(C)C)NC(=O)[C@@H](CCCNC(=N)N)NC(=O)[C@H](CC(=O)O)NC(=O)[C@@H]2CCCN2C(=O)CN(C)C(=O)[C@H](Cc2ccc(-c3cccc(NC(=O)c4coc5ccccc45)c3)cc2)NC(=O)[C@H](Cc2ccc(-c3ccccc3)cc2)NC(=O)[C@H](CN2CCOCC2)NC(=O)CSC[C@@H](C(=O)NCC(N)=O)NC1=O [Example 344] ({CH2CO}-[Ala(morpholin-4-yl)][Bip][X17][Sar]PD[dR]VPVRLCG-NH2; thioether N-13)
5 | < 50 | CC(C)C[C@@H]1NC(=O)[C@H](CCCNC(=N)N)NC(=O)[C@H](C(C)C)NC(=O)[C@@H]2CCCN2C(=O)[C@H](C(C)C)NC(=O)[C@@H](CCCNC(=N)N)NC(=O)[C@H](CC(=O)O)NC(=O)[C@@H]2CCCN2C(=O)CN(C)C(=O)[C@H](Cc2ccc(-c3cccc(NC(=O)c4nn(C)c5ncccc45)c3)cc2)NC(=O)[C@H](Cc2ccc(-c3ccccc3)cc2)NC(=O)[C@H](CN2CCOCC2)NC(=O)CSC[C@@H](C(=O)NCC(N)=O)NC1=O [Example 345] ({CH2CO}-[Ala(morpholin-4-yl)][Bip][X9][Sar]PD[dR]VPVRLCG-NH2; thioether N-13)
6 | < 50 | CC(C)C[C@@H]1NC(=O)[C@H](CCCNC(=N)N)NC(=O)[C@H](C(C)C)NC(=O)[C@@H]2CCCN2C(=O)[C@H](C(C)C)NC(=O)[C@@H](CCCNC(=N)N)NC(=O)[C@H](CC(=O)O)NC(=O)[C@@H]2CCCN2C(=O)CN(C)C(=O)[C@H](Cc2ccc(-c3ccc(NC(=O)c4coc5ccccc45)cc3)cc2)NC(=O)[C@H](Cc2ccc(-c3ccccc3)cc2)NC(=O)[C@H](CN2CCOCC2)NC(=O)CSC[C@@H](C(=O)NCC(N)=O)NC1=O [Example 346] ({CH2CO}-[Ala(morpholin-4-yl)][Bip][X47][Sar]PD[dR]VPVRLCG-NH2; thioether N-13)
7 | < 50 | CC(C)C[C@@H]1NC(=O)[C@H](CCCNC(=N)N)NC(=O)[C@H](C(C)C)NC(=O)[C@@H]2CCCN2C(=O)[C@H](C(C)C)NC(=O)[C@@H](CCCNC(=N)N)NC(=O)[C@H](CC(=O)O)NC(=O)[C@@H]2CCCN2C(=O)CN(C)C(=O)[C@H](Cc2ccc(-c3ccc(NC(=O)c4nn(C)c5ncccc45)cc3)cc2)NC(=O)[C@H](Cc2ccc(-c3ccccc3)cc2)NC(=O)[C@H](CN2CCOCC2)NC(=O)CSC[C@@H](C(=O)NCC(N)=O)NC1=O [Example 347] ({CH2CO}-[Ala(morpholin-4-yl)][Bip][X74][Sar]PD[dR]VPVRLCG-NH2; thioether N-13)
8 | 200 to 2000 | CC[C@H](C)[C@@H]1NC(=O)[C@@H](CCCNC(=N)N)NC(=O)[C@H](CC(=O)O)NC(=O)[C@H](Cc2cnc[nH]2)NC(=O)CN(C)C(=O)[C@H](Cc2ccc(-c3ccc(NC(=O)c4cccc(-c5ccccc5)c4)cc3)cc2)NC(=O)[C@H](Cc2ccc(-c3ccccc3)cc2)NC(=O)[C@H](CC2CCCCC2)NC(=O)CSC[C@@H](C(=O)NCC(N)=O)NC(=O)[C@H](CC(C)C)NC(=O)[C@H](Cc2cnc[nH]2)NC(=O)[C@H](C(C)C)NC(=O)[C@@H]2CCCN2C1=O [Example 349] ({CH2CO}-[Cha][Bip][Bip(4'-NH)](Benzoyl(3-Ph))[Sar]HD[dR]IPVHLCG-NH2; thioether N-13)
9 | < 50 | CC[C@H](C)[C@@H]1NC(=O)[C@@H]2CCCN2C(=O)[C@H]([C@@H](C)CC)NC(=O)[C@@H](CCCNC(=N)N)NC(=O)[C@H](CC(=O)O)NC(=O)[C@H](Cc2ccccc2)NC(=O)CN(C)C(=O)[C@H](Cc2ccc(-c3ccc(NC(=O)c4cccc(C(=O)O)c4)cc3)cc2)NC(=O)[C@H](Cc2ccc(-c3ccc(C(=O)O)cc3)cc2)NC(=O)[C@H](C(C)(C)C)NC(=O)CSC[C@@H](C(=O)NCC(N)=O)NC(=O)[C@H](CC(C)C)NC(=O)[C@H](Cc2cnc[nH]2)NC1=O [Example 351] ({CH2CO}-[Tle][Bip(4'-COOH)][Bip(4'-(3-HOOC-benzamido))][Sar]FD[dR]IPIHLCG-NH2; thioether N-13)
10 | < 50 | CC[C@H](C)[C@@H]1NC(=O)[C@@H]2CCCN2C(=O)[C@H]([C@@H](C)CC)NC(=O)[C@@H](CCCNC(=N)N)NC(=O)[C@H](CC(=O)O)NC(=O)[C@H](Cc2ccccc2)NC(=O)CN(C)C(=O)[C@H](Cc2ccc(-c3ccc(NC(=O)c4cccc(OCC(=O)O)c4)cc3)cc2)NC(=O)[C@H](Cc2ccc(-c3ccc(C(=O)O)cc3)cc2)NC(=O)[C@H](C(C)(C)C)NC(=O)CSC[C@@H](C(=O)NCC(N)=O)NC(=O)[C@H](CC(C)C)NC(=O)[C@H](Cc2cnc[nH]2)NC1=O [Example 352] ({CH2CO}-[Tle][Bip(4'-COOH)][Bip(4'-NH)](Benzoyl(3-OCH2COOH))[Sar]FD[dR]IPIHLCG-NH2; thioether N-13)
11 | < 50 | CC[C@H](C)[C@@H]1NC(=O)[C@@H]2CCCN2C(=O)[C@H]([C@@H](C)CC)NC(=O)[C@@H](CCCNC(=N)N)NC(=O)[C@H](CC(=O)O)NC(=O)[C@H](Cc2ccccc2)NC(=O)CN(C)C(=O)[C@H](Cc2ccc(-c3ccc(NC(=O)c4csc(-c5ccncc5)n4)cc3)cc2)NC(=O)[C@H](Cc2ccc(-c3ccc(C(=O)O)cc3)cc2)NC(=O)[C@H](C(C)(C)C)NC(=O)CSC[C@@H](C(=O)NCC(N)=O)NC(=O)[C@H](CC(C)C)NC(=O)[C@H](Cc2cnc[nH]2)NC1=O [Example 353] ({CH2CO}-[Tle][Bip(4'-COOH)][Bip(4'-NH)](X20)[Sar]FD[dR]IPIHLCG-NH2; thioether N-13)
12 | 50 to 200 | CC[C@H](C)[C@@H]1NC(=O)[C@@H](CCCNC(=N)N)NC(=O)[C@H](CC(=O)O)NC(=O)[C@H](Cc2cnc[nH]2)NC(=O)CN(C)C(=O)[C@H](Cc2ccc(-c3ccc(NC(=O)c4ccccc4Oc4cccc(C(=O)O)c4)cc3)cc2)NC(=O)[C@H](Cc2ccc(-c3ccccc3)cc2)NC(=O)[C@H](CC2CCCCC2)NC(=O)CSC[C@@H](C(=O)NCC(N)=O)NC(=O)[C@H](CC(C)C)NC(=O)[C@H](Cc2cnc[nH]2)NC(=O)[C@H](C(C)C)NC(=O)[C@@H]2CCCN2C1=O [Example 354] ({CH2CO}-[Cha][Bip][Bip(4'-NH)](X3)[Sar]HD[dR]IPVHLCG-NH2; thioether N-13)

Row | SMILES | IC50 [nM]
13 | CC(C)C[C@@H]1NC(=O)[C@H](Cc2ccc(O)cc2)NC(=O)[C@H](C(C)C)NC(=O)[C@@H]2CCCN2C(=O)[C@H](C(C)C)NC(=O)[C@@H](CCCNC(=N)N)NC(=O)[C@H](CC(=O)O)NC(=O)[C@@H]2CCCN2C(=O)CN(C)C(=O)[C@H](Cc2ccc(-c3ccc(NC(=O)c4nn(C)c5ccccc45)cc3)cc2)NC(=O)[C@H](Cc2ccc(-c3ccc(C(=O)O)cc3)cc2)NC(=O)[C@H](CC2CCCCC2)NC(=O)CSC[C@@H](C(=O)NCC(N)=O)NC1=O [Example 340] ({CH2CO}-[Cha][Bip(4'-COOH)][X5][Sar]PD[dR]VPVYLCG-NH2; thioether N-13) | < 50
14 | CC[C@H](C)[C@@H]1NC(=O)[C@@H](CCCNC(=N)N)NC(=O)[C@H](CC(=O)O)NC(=O)[C@H](Cc2cnc[nH]2)NC(=O)CN(C)C(=O)[C@H](Cc2ccc(-c3ccc(NC(=O)c4nn(C)c5ccccc45)cc3)cc2)NC(=O)[C@H](Cc2ccc(-c3ccccc3)cc2)NC(=O)[C@H](CC2CCCCC2)NC(=O)CSC[C@@H](C(=O)NCC(N)=O)NC(=O)[C@H](CC(C)C)NC(=O)[C@H](Cc2cnc[nH]2)NC(=O)[C@H](C(C)C)NC(=O)[C@@H]2CCCN2C1=O [Example 341] ({CH2CO}-[Cha][Bip][X5][Sar]HD[dR]IPVHLCG-NH2; thioether N-13) | < 50
15 | CC(C)C[C@@H]1NC(=O)[C@H](CCCNC(=N)N)NC(=O)[C@H](C(C)C)NC(=O)[C@@H]2CCCN2C(=O)[C@H](C(C)C)NC(=O)[C@@H](CCCNC(=N)N)NC(=O)[C@H](CC(=O)O)NC(=O)[C@@H]2CCCN2C(=O)CN(C)C(=O)[C@H](Cc2ccc(-c3ccc(NC(=O)c4cn(C)c5ccccc45)cc3)cc2)NC(=O)[C@H](Cc2ccc(-c3ccccc3)cc2)NC(=O)[C@H](CN2CCOCC2)NC(=O)CSC[C@@H](C(=O)NCC(N)=O)NC1=O [Example 348] ({CH2CO}-[Ala(morpholin-4-yl)][Bip][X10][Sar]PD[dR]VPVRLCG-NH2; thioether N-13) | 50 to 200

From patent US20250145665A1, “MACROCYCLIC PEPTIDES USEFUL AS MODULATORS OF TNF ALPHA” (Bristol-Myers Squibb Company, priority 2023, published 2025)
